Results taken from ChEMBL document CHEMBL4732108, “Targeting the K11.1 (hERG) channel with allosteric modulators. Synthesis and biological evaluation of three novel series of LUF7346 derivatives” (Eur J Med Chem, 2021).
Active and inactive are the calls of the source. The calls are words filed in the database; no cut-off is given here.

Legend:
hERG (KCNH2) = hERG (KCNH2) (Homo sapiens, UniProt Q12809); assay: Displacement of [3H]dofetilide from human ERG stably expressed in HEK293 cell membranes assessed as residual binding level at 10 uM measured after 60 mins by microbeta liquid scintillation counting method relative to control; set-up: species or system Membrane; settings: membranes of HEK293 cells stably expressing hERG, probe [3H]dofetilide, read-out: Activity
[1] = test system: Stem cell-derived cardiomyocyte; assay: Effect on dofetilide-induced reduction in RR interval in human iPSC-derived cardiomyocytes by microarray electrode based assay; type: functional
[2] = test system: Stem cell-derived cardiomyocyte; assay: Effect on human iPSC-derived cardiomyocytes assessed as suppression of dofetilide-induced increase in field potential duration by microarray electrode based assay; type: functional
[3] = test system: Stem cell-derived cardiomyocyte; assay: Effect on human iPSC-derived cardiomyocytes assessed as change in field potential duration by microarray electrode based assay; type: functional
[4] = test system: Stem cell-derived cardiomyocyte; assay: Effect on human iPSC-derived cardiomyocytes assessed as reduction in beating rate by measuring change in RR interval at higher concentration by microarray electrode based assay; type: functional
[5] = biological target: T1, Voltage-gated inwardly rectifying potassium channel KCNH2 (Homo sapiens, UniProt Q12809); assay: Displacement of [3H]dofetilide from human ERG stably expressed in HEK293 cell membranes assessed as unlabelled dofetilide IC50 at 1 uM measured after 60 mins by microbeta liquid scintillation counting method (reference value: 9.1 to 11.7 nM); set-up: species or system Membrane
[6] = test system: Stem cell-derived cardiomyocyte; assay: Effect on human iPSC-derived cardiomyocytes assessed as prolongation of field potential duration by microarray electrode based assay; type: functional, tissue-based
[7] = biological target: T1, Voltage-gated inwardly rectifying potassium channel KCNH2; assay: Channel blockade of human ERG stably expressed in HEK293 cells assessed as decrease in current density at 5 uM with -60 mV holding potential measured after 5 mins by whole cell patch clamp method; settings: hek293, 5 min
[8] = test system: Stem cell-derived cardiomyocyte; assay: Effect on human iPSC-derived cardiomyocytes assessed as reduction in beating rate by measuring change in RR interval at 30 uM by microarray electrode based assay; type: functional, tissue-based
[9] = test system: Stem cell-derived cardiomyocyte; assay: Effect on human iPSC-derived cardiomyocytes assessed as suppression of dofetilide-induced increase in field potential duration at 10 to 30 uM by microarray electrode based assay; type: functional; settings: dose 10-30 µM
[10] = test system: Stem cell-derived cardiomyocyte; assay: Effect on dofetilide-induced reduction in RR interval in human iPSC-derived cardiomyocytes at 10 to 30 uM by microarray electrode based assay; type: functional; settings: dose 10-30 µM
[11] = biological target: T1, Voltage-gated inwardly rectifying potassium channel KCNH2; assay: Negative allosteric modulation of human ERG stably expressed in HEK293 cells assessed as increase in current density at 5 uM with -60 mV holding potential measured after 5 mins by whole cell patch clamp method; settings: hek293, 5 min
[12] = test system: Stem cell-derived cardiomyocyte; assay: Effect on human iPSC-derived cardiomyocytes assessed as shortening of field potential duration by microarray electrode based assay; type: functional, tissue-based
[13] = biological target: T1, Voltage-gated inwardly rectifying potassium channel KCNH2; assay: Displacement of [3H]dofetilide from human ERG stably expressed in HEK293 cell membranes assessed as unlabelled dofetilide IC50 at 10 uM measured after 60 mins by microbeta liquid scintillation counting method (reference value: 9.1 to 11.7 nM); set-up: species or system Membrane
[14] = biological target: T1, Voltage-gated inwardly rectifying potassium channel KCNH2; assay: Displacement of [3H]dofetilide from human ERG stably expressed in HEK293 cell membranes assessed as unlabelled dofetilide IC50 at 3 uM measured after 60 mins by microbeta liquid scintillation counting method (reference value: 9.1 to 11.7 nM); set-up: species or system Membrane

T1 sequence (Q12809 whole entry): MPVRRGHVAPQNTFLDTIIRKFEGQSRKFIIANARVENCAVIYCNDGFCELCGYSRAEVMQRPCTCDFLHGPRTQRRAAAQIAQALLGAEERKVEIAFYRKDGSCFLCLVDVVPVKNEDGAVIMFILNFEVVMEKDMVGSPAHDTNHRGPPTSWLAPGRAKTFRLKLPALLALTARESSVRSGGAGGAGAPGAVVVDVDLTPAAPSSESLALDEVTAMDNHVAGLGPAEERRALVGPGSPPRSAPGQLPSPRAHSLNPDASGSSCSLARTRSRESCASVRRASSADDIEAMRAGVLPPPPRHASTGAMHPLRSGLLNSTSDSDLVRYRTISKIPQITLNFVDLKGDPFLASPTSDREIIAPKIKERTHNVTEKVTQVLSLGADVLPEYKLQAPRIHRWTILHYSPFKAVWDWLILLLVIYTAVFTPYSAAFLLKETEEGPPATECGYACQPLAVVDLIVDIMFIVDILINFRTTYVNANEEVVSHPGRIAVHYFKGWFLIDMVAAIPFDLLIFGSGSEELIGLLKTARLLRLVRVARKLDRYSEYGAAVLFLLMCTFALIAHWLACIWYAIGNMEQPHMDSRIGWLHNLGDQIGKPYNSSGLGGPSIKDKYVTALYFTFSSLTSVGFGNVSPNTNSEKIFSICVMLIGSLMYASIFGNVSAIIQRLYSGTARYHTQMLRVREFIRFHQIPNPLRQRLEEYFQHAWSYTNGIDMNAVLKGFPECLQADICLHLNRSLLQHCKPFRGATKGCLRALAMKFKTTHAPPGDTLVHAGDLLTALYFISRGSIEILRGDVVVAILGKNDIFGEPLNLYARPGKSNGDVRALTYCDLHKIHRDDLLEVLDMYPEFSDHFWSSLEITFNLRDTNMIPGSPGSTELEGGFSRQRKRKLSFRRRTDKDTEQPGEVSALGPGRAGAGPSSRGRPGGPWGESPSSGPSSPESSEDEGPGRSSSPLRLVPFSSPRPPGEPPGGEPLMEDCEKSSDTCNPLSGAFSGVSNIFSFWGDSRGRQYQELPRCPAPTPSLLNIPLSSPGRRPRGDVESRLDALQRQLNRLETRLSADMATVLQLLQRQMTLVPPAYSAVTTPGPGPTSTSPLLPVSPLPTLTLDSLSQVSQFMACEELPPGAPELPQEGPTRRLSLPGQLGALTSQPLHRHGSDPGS
Chain of hERG (KCNH2) (Q12809 whole entry): as above

| Structure (SMILES) | activity at 1 h, 10 µM (hERG (KCNH2)) [%] | further results |
| --- | --- | --- |
| O=C(COc1ccc(C(=O)c2cc(Cl)ccc2Br)cc1)Nc1cc(C(=O)NCC2CC2)ccc1Cl | 89 |  |
| O=C(COc1ccc(C(=O)c2cc(Cl)ccc2Br)cc1)Nc1ccnc(C(=O)NCC2CC2)c1 | 53 |  |
| Cc1ccc(NC(=O)COc2ccc(C(=O)c3cc(Cl)ccc3Br)cc2)cc1C#N | 87 |  |
| N#Cc1cc(NC(=O)COc2ccc(C(=O)c3cc(Cl)ccc3Br)cc2)ccc1Cl | 86 |  |
| N#Cc1cncc(NC(=O)COc2ccc(C(=O)c3cc(Cl)ccc3Br)cc2)c1 |  | Activity [1]: inactive; Activity [2]: inactive; Activity [3]: inactive; Activity [4]: Active |
| COc1ccc(C#N)cc1NC(=O)COc1ccc(C(=O)c2cc(Cl)ccc2Br)cc1 | 28 |  |
| N#Cc1cccc(NC(=O)COc2ccc(C(=O)c3cc(Cl)ccc3Br)cc2)c1 | 20 | IC50 [5]: 28.3 nM |
| Cc1cc(NC(=O)COc2ccc(C(=O)c3cc(Cl)ccc3Br)cc2)ccn1 | 9 | Activity [1]: inactive; Activity [2]: inactive; Activity [6]: Active; Activity [7]: Active; Activity [4]: inactive |
| O=C(COc1ccc(C(=O)c2cc(Cl)ccc2Br)cc1)Nc1ccnc(F)c1 | 56.1 |  |
| COc1ccc(NC(=O)COc2ccc(C(=O)c3cc(Cl)ccc3Br)cc2)cc1C#N | 60 |  |
| O=C(COc1ccc(C(=O)c2cc(Cl)ccc2Br)cc1)Nc1cc(Cl)cc(C(=O)NCC2CC2)c1 | 36 |  |
| O=C(COc1ccc(C(=O)c2cc(Cl)ccc2Br)cc1)Nc1cncc(C(=O)NCC2CC2)c1 | 2 | Activity [6]: Active; Activity [7]: Active; Activity [8]: Active; Activity [4]: Active |
| O=C(COc1ccc(C(=O)c2cc(Cl)ccc2Br)cc1)Nc1cccc(C(=O)NC2CC2)c1 | 27 |  |
| COc1cc(NC(=O)COc2ccc(C(=O)c3cc(Cl)ccc3Br)cc2)ccn1 | 90 |  |
| O=C(COc1ccc(C(=O)c2ccccc2Br)cc1)Nc1cccnc1 | 29.8 | Activity [9]: Active; Activity [10]: inactive; Activity [11]: Active; Activity [12]: Dose-dependent effect; Activity [4]: Active |
| O=C(COc1ccc(C(=O)c2cc(Cl)ccc2Br)cc1)Nc1cccc(C(=O)NCC2CC2)c1 | 36.6 |  |
| O=C(COc1ccc(C(=O)c2cc(Cl)ccc2Br)cc1)Nc1ccc(Cl)c(C(=O)NCC2CC2)c1 | 20 |  |
| CC(C)CNC(=O)c1cccc(NC(=O)COc2ccc(C(=O)c3cc(Cl)ccc3Br)cc2)c1 | 46 |  |
| N#Cc1ccc(Cl)c(NC(=O)COc2ccc(C(=O)c3cc(Cl)ccc3Br)cc2)c1 | 44 |  |
| O=C(COc1ccc(C(=O)c2cc(Cl)ccc2Br)cc1)Nc1ccncc1 | 26.1 | IC50 [13]: 43.7 nM |
| N#Cc1cc(NC(=O)COc2ccc(C(=O)c3cc(Cl)ccc3Br)cc2)ccc1F | 22.7 |  |
| CNC(=O)c1cccc(NC(=O)COc2ccc(C(=O)c3cc(Cl)ccc3Br)cc2)c1 | 39.8 |  |
| O=C(COc1ccc(C(=O)c2cc(Cl)ccc2Br)cc1)Nc1ccnc(Cl)c1 | 52 |  |
| N#Cc1cccc(NC(=O)COc2ccc(C(=O)c3cc(Cl)ccc3Br)cc2)c1F | 21 |  |
| N#Cc1cc(Cl)cc(NC(=O)COc2ccc(C(=O)c3cc(Cl)ccc3Br)cc2)c1 | 36 |  |
| O=C(COc1ccc(C(=O)c2cc(Cl)ccc2Br)cc1)Nc1cccc(C(=O)NCC2CC2)c1Cl | -2 |  |
| Cc1cnccc1NC(=O)COc1ccc(C(=O)c2cc(Cl)ccc2Br)cc1 | 15 | IC50 [14]: 14.1 nM |
| O=C(COc1ccc(C(=O)c2cc(Cl)ccc2Br)cc1)Nc1cccnc1 | 28.2 |  |
| O=C(COc1ccc(C(=O)c2cc(Cl)ccc2Br)cc1)Nc1cccc(C(=O)NCC2CCC2)c1 | 38 |  |
